A word on the EC50: it is the concentration giving half of the maximal effect. Usually IC50 stands for the midpoint of a concentration-inhibition curve.

This is an account of results in patent US9682955B2, “Quinazoline derivatives useful as CB-1 inverse agonists” (Janssen Pharmaceutica NV, priority 2014, dated 2017).

Data set [1] has as its target Human CB2R (Cannabanoid receptor 2) (Homo sapiens (Human), UniProt P34972). Briefly: CB-2 in vitro cAMP assay (HTRF). In kind it is cell-based. The conditions noted are these: mean where tested more than once. The gist of the method:
(§1)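 HEK-293 cells stably transfected with the human receptor, plated overnight at 4E5 cells/mL. Compounds given as 1/3 serial dilutions from 10 mM DMSO stocks. Stimulation in HBSS/5 mM HEPES/0.1% BSA with 0.5 mM IBMX and forskolin (1.5 μM in buffer); cAMP measured by competitive HTRF immunoassay (d2-cAMP, cryptate anti-cAMP) against a cAMP standard curve.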
On the technique in general: Changes in cAMP serve as a functional read-out for many G protein-coupled receptors.

A short description of data set [2]: Mouse Fast PK/BBB (plasma and brain concentration). In kind it is in vivo, Male C57bl/6j mice. The conditions noted are these: for concentration at 1 h / concentration at 4 h: male, C57bl/6j. The procedure:
Male Sprague Dawley rats were ordered from Charles River (225-250 gm upon arrival). They were fed standard chow diet (Purina 5001) and housed 2 per cage. Male C57bl/6j mice were ordered from Charles River at 22-25 g and housed 3 per cage. They were fed standard chow (Purina 5001). All animals were housed in a temperature-controlled room with 12-hour light/dark cycle. Animals were given food and water ad libitum, except as noted.
[…] Test compounds were administered by oral gavage (5 ml kg^−1).
Male C57bl/6j mice were dosed with test compounds at 30 mg/kg. Plasma was collected via retro-orbital bleeding at 1 hr and 4 hrs after dosing. Whole brain without cerebellum was collected at 4 hrs after dosing. Wet brain weight was recorded before freezing. Brains were homogenized in saline and sent for analysis for determination of concentration of test compound.
Tables 6A and 6B below present results for representative compounds of the present invention, tested according to the procedure as described above. Each compound was tested in three animals (N=3) and administered PO at 20 mg/kg or 30 mg/kg.

Data set [3] concerns the target Human CB1R (Cannabanoid receptor 1) (Homo sapiens (Human), UniProt P21554). Briefly: CB-1 in vitro cAMP assay (HTRF). Type of data set: cell-based. The conditions noted are these: mean where tested more than once. The procedure, abridged:
as §1

For a further data set, the target named is hCB1-CHO-K1 membranes (Homo sapiens (Human), UniProt P21554). Briefly: CB-1 membrane binding assay ([3H] CP 55,940 displacement). The conditions noted are these: [3H] CP 55,940 0.4 nM. The procedure:
Into Greiner V bottom polypropylene plates, hCB1-CHO-K1 membranes (2 μg/well final concentration) in assay buffer (50 mM Tris-HCl pH 7.4, 5 mM MgCl2 and 0.5 mg/ml (0.05%) Ultra fatty acid free BSA) were dispensed. Membranes were purchased from Perkin Elmer. Test compounds were then added to each well and then [^3H] CP 55, 940 (0.4 nM final well concentration) in assay buffer (50 mM Tris-HCl pH 7.4, 5 mM MgCl2 and 0.5 mg/ml (0.05%) Ultra fatty acid free BSA) was added. Samples were mixed and incubated for 90 min at 30° C. in the Greiner V Bottom Polypropylene plate. After incubation, assay reagents were transferred to a blocked 384 well polypropylene filter plates. The binding reaction was stopped by filtration and washed seven times with ice cold rinse buffer. Filter plates were then dried overnight at room temperature. The next day, plate bottoms were sealed with plate tape and 15 μl MicroScint 20 was added to each well. Plates were incubated for 2h and radioactivity was measured by Topcount.
Total Binding levels were achieved by combining membrane, DMSO, and [^3H] CP-55,940 (also known as 5-(1,1-dimethylheptyl)-2-[(1R,2R,5R)-5-hydroxy-2-(3-hydroxypropyl)cyclohexyl]-phenol). […]
IC50 data was calculated using raw CPM values. […] IC50 values were fit appropriately and calculated using the following equation: […]

Setting [4] is: plasma, PO 30 mg/kg, 1 hr, N=3, read-out: PLASMA Mean Conc. ± Std. Dev.
Where [5] appears, read: PO 20 mg/kg, 10% PEG400 and 10% Solutol in water, 1 hr, individual animals.
[6] abbreviates: PO 20 mg/kg, 10% PEG400 and 10% Solutol in water, 4 hr, individual animals.
The mark [7] stands for this setting: PO 30 mg/kg, 5% NMP and 20% HPβCD ~pH8 in water, 1 hr, individual animals.
Where [8] appears, read: PO 30 mg/kg, 5% NMP and 20% HPβCD ~pH8 in water, 4 hr, individual animals.

Where “and” joins values, the source holds several entries; their conditions need not be identical. Equal entries are not always repeated. Where two headings read alike, the source gives them in different places.

Chain of Human CB2R (Cannabanoid receptor 2) (P34972 whole entry): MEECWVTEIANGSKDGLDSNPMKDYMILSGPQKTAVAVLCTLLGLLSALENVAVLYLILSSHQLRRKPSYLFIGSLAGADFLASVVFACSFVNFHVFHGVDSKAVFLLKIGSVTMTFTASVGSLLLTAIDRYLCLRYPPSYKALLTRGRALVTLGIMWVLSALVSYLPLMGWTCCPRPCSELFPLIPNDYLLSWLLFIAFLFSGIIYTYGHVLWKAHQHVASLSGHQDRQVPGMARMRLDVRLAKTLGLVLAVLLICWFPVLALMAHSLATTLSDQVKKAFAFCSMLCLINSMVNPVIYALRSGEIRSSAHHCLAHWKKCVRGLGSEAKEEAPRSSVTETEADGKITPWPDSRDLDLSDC
Chain of Human CB1R (Cannabanoid receptor 1) (P21554 whole entry): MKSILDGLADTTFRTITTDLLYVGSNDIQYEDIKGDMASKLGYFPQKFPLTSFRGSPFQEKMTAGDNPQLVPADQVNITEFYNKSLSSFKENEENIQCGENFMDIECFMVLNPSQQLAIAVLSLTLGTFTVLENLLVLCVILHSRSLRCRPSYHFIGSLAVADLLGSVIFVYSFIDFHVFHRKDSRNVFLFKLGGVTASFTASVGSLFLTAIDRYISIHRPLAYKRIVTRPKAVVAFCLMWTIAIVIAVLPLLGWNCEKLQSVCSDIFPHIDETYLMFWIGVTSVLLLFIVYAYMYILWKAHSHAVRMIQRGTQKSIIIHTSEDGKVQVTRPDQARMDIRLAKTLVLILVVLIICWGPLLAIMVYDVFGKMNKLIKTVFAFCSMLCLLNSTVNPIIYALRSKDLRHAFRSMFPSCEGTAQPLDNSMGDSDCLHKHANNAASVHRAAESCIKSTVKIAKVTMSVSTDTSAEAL
Chain of hCB1-CHO-K1 membranes (P21554 whole entry): as above

Take `N=C(N)c1ccc(S(=O)(=O)N2CCC(Nc3ncnc4ccc(C(c5ccc(Cl)cc5)c5ccc(Cl)cc5)cc34)CC2)cc1` [Compound #47, 4-((4-((6-(bis(4-chlorophenyl)methyl)quinazolin-4-yl)amino)piperidin-1-yl)sulfonyl)benzimidamide]: the EC50 in data set [1] turned out to be 3920 nM; in data set [3], 10 nM. Moreover, the “BRAIN Mean Conc. ± Std. Dev” value in data set [2] (PO 30 mg/kg, 1 hr, N=3) is on record as “BLOQ ± NA”; in data set [2] (PO 30 mg/kg, 4 hr, N=3), “BLOQ ± NA”. Also, the “PLASMA Mean Conc. ± Std. Dev” value in data set [2] (PO 30 mg/kg, 4 hr, N=3) is “BLOQ ± NA”. Besides, the concentration at 1 h in data set [2] (setting [4]) was found to be 7.83 ± 1.08 ng/mL.
Take `OCC(CO)(CO)COc1nc(NCc2cccc(C(F)(F)F)c2)c2cc(C(c3ccc(Cl)cc3)c3ccc(Cl)cc3)ccc2n1` [Compound #54, 2-(((6-(bis(4-chlorophenyl)methyl)-4-((3-(trifluoromethyl)benzyl)amino)quinazolin-2-yl)oxy)methyl)-2-(hydroxymethyl)propane-1,3-diol]: the figures for the EC50 in data set [1] and in data set [3] were 4460 nM and 21 nM, respectively. In addition, the “BRAIN Mean Conc. ± Std. Dev” value is given as “BLOQ ± NA” in data set [2] (PO 30 mg/kg, 1 hr, N=3) and “BLOQ ± NA” in data set [2] (PO 30 mg/kg, 4 hr, N=3). In data set [2] (setting [4]), the concentration at 1 h stood at 946 ± 99.4 ng/mL. Besides, in data set [2] (plasma, PO 30 mg/kg, 4 hr, N=3, read-out: PLASMA Mean Conc. ± Std. Dev), the concentration at 4 h worked out at 1300 ± 155 ng/mL.
Regarding `O=C(O)c1ccc(S(=O)(=O)N2CCC(Nc3ncnc4ccc(C(c5ccc(Cl)cc5)c5ccc(Cl)cc5)cc34)CC2)cc1` [Compound #93, 4-((4-((6-(bis(4-chlorophenyl)methyl)quinazolin-4-yl)amino)piperidin-1-yl)sulfonyl)benzoic acid], the EC50 is 323 nM in data set [1] and 14 nM in data set [3]. Moreover, the “BRAIN Range of Conc.” value in data set [2] (setting [5]) is recorded as “ND, ND, ND”; in data set [2] (setting [6]) it was “ND, ND, ND”; in data set [2] (setting [7]), “BLOQ, BLOQ,”; in data set [2] (setting [8]), “BLOQ, BLOQ,”. For the same compound, the “PLASMA Range of Conc.” value in data set [2] (setting [5]) is “ND, BLOQ, ND”; in data set [2] (setting [6]), 17.155 ng/mL and 6.427 ng/mL; in data set [2] (setting [7]) it was 280 ng/mL and 9.10 ng/mL and 9.00 ng/mL; in data set [2] (setting [8]) it was “BLOQ, BLOQ,”. For the same compound, in data set [2] (plasma, PO 20 mg/kg, 10% PEG400 and 10% Solutol in water, 4 hr, individual animals, read-out: PLASMA Range of Conc.), the concentration at 4 h worked out at 16.1 ng/mL.
Take `CS(=O)(=O)N1CCC(Nc2ncnc3ccc(C(c4ccc(Cl)cc4)c4ccc(Cl)cc4)cc23)CC1` [Compound #140, 6-(bis(4-chlorophenyl)methyl)-N-(1-(methylsulfonyl)piperidin-4-yl) quinazolin-4-amine]: the EC50 stood at 2450 nM in data set [1] and 24 nM in data set [3]. This compound yielded an IC50 on hCB1-CHO-K1 membranes of 74 nM.
On to `FC(F)(F)c1cncc(CNc2ncnc3ccc(C(c4ccc(Cl)cc4)c4ccc(Cl)cc4)cc23)c1` [compound 126, 6-(bis(4-chlorophenyl)methyl)-N-((5-(trifluoromethyl)pyridin-3-yl)methyl)quinazolin-4-amine], for which the EC50 in data set [1] turned out to be 1180 nM; in data set [3], 25 nM.
In the case of `FC(F)(F)c1ccc(CNc2ncnc3ccc(C(c4ccc(Cl)cc4)c4ccc(Cl)cc4)cc23)nc1` [compound 127, 6-(bis(4-chlorophenyl)methyl)-N-((5-(trifluoromethyl)pyridin-2-yl)methyl)quinazolin-4-amine], the values for the EC50 in data set [1] and in data set [3] were 1720 nM and 30 nM, respectively.
The corresponding values for `CC(Nc1ncnc2ccc(C(c3ccc(Cl)cc3)c3ccc(Cl)cc3)cc12)c1cccc(C(F)(F)F)c1` (centres unmarked) [compound 128, 6-(bis(4-chlorophenyl)methyl)-N-(1-(3-(trifluoromethyl)phenyl)ethyl)quinazolin-4-amine] are 10400 nM and 9 nM.
The matching figures for `FC(F)(F)c1ccc(N2CCC(Nc3ncnc4ccc(C(c5ccc(Cl)cc5)c5ccc(Cl)cc5)cc34)CC2)cc1` [compound 129, 6-(bis(4-chlorophenyl)methyl)-N-(1-(4-(trifluoromethyl)phenyl)piperidin-4-yl)quinazolin-4-amine]: 72 nM and 3 nM.
The corresponding values for `O=S(=O)(N1CCC(CNc2ncnc3ccc(C(c4ccc(Cl)cc4)c4ccc(Cl)cc4)cc23)CC1)C(F)(F)F` [compound 135, 6-(bis(4-chlorophenyl)methyl)-N-((1-(trifluoromethylsulfonyl)piperidin-4-yl)methyl)quinazolin-4-amine] are 2850 nM and 8 nM.
Turning to `FC(F)(F)c1ccc(CNc2ncnc3ccc(C(c4ccc(Cl)cc4)c4ccc(Cl)cc4)cc23)cc1` [compound 138, 6-(bis(4-chlorophenyl)methyl)-N-(4-(trifluoromethyl)benzyl)quinazolin-4-amine], the EC50 in data set [1] was above 10000 nM; in data set [3] it was 11 nM. In addition, the concentration at 1 h in data set [2] (brain, PO 20 mg/kg, 1 hr, N=3, read-out: BRAIN Mean Conc. ± Std. Dev) is 61.7 ± 22.6 ng/mL; in data set [2] (plasma, PO 20 mg/kg, 1 hr, N=3, read-out: PLASMA Mean Conc. ± Std. Dev) it was 3300 ± 537 ng/mL. Further, the concentration at 4 h in data set [2] (brain, PO 20 mg/kg, 4 hr, N=3, read-out: BRAIN Mean Conc. ± Std. Dev) came to 192 ± 14 ng/mL; in data set [2] (plasma, PO 20 mg/kg, 4 hr, N=3, read-out: PLASMA Mean Conc. ± Std. Dev), 3790 ± 743 ng/mL.
For the compound `CCS(=O)(=O)N1CCC(Nc2ncnc3ccc(C(c4ccc(Cl)cc4)c4ccc(Cl)cc4)cc23)CC1` [compound 141, 6-(bis(4-chlorophenyl)methyl)-N-(1-(ethylsulfonyl)piperidin-4-yl) quinazolin-4-amine], the EC50 in data set [1] came out at 5010 nM; in data set [3], 32 nM.
